Assay results as given in patent US10570122B2, “Compounds with anti-tumoral activity” (AB Science, priority 2015, dated 2020).

Assays:
HL60 = experiment: CellTiter-Blue cell-based survival/proliferation assay, HL60; conditions: Homo sapiens, HL-60, Leukemia cell line HL60, 48 h, read-out: Anti-tumoral activity (measured IC50) HL60
Description: (§1) Cell-Based Proliferation Screening of Compounds
(§2) CellTiter-Blue cell-based survival/proliferation assay (Promega G8080) was performed on tumor cell lines. A total of 1·10^4 cells/well/50 μl were seeded in a 96-wells plate. Treatment was initiated by addition of a 2× drug solution of 1/10 serial dilutions ranging from 0 to 10 μM. Cells were grown for 48 h at 37° C. and then incubated with 10 μl/well of Promega CellTiter-Bleue reagent for 4 h at 37° C. The amount of resorufin dye formed was quantified by its fluorescence emission at 590 nm using a scanning multiwell spectrophotometer (OPTIMA, BMG labtech, France). A blank well without cells was used as a background control for the spectrophotometer.

OPM2 = experiment: CellTiter-Blue cell-based survival/proliferation assay, OPM2; conditions: Homo sapiens, OPM-2, Myeloma cell line OPM2, 48 h, read-out: Anti-tumoral activity (measured IC50) OPM2
Description: as §1, §2

A498 = experiment: CellTiter-Blue cell-based survival/proliferation assay, A498; conditions: Homo sapiens; A498 kidney tumor cell line, 48 h
Description: as §1, §2

A549 = experiment: CellTiter-Blue cell-based survival/proliferation assay, A549; conditions: Homo sapiens; A549 lung tumor cell line, 48 h
Description: as §1, §2

ACHN = experiment: CellTiter-Blue cell-based survival/proliferation assay, ACHN; conditions: Homo sapiens; ACHN kidney tumor cell line, 48 h
Description: as §1, §2

AGS = experiment: CellTiter-Blue cell-based survival/proliferation assay, AGS; conditions: Homo sapiens; AGS stomach tumor cell line, 48 h
Description: as §1, §2

BT20 = experiment: CellTiter-Blue cell-based survival/proliferation assay, BT20; conditions: Homo sapiens, BT-20; BT20 breast tumor cell line, 48 h
Description: as §1, §2

BXPC3 = experiment: CellTiter-Blue cell-based survival/proliferation assay, BXPC3; conditions: Homo sapiens, BXPC-3; BXPC3 pancreas tumor cell line, 48 h
Description: as §1, §2

CALU6 = experiment: CellTiter-Blue cell-based survival/proliferation assay, CALU6; conditions: Homo sapiens, Calu-6; CALU6 lung tumor cell line, 48 h
Description: as §1, §2

CLS354 = experiment: CellTiter-Blue cell-based survival/proliferation assay, CLS354; conditions: Homo sapiens, CLS-354; CLS354_4 head & neck tumor cell line, 48 h
Description: as §1, §2

DLD1 = experiment: CellTiter-Blue cell-based survival/proliferation assay, DLD1; conditions: Homo sapiens, DLD-1; DLD_1 colorectal tumor cell line, 48 h
Description: as §1, §2

DU145 = experiment: CellTiter-Blue cell-based survival/proliferation assay, DU145; conditions: Homo sapiens, DU-145; DU145 prostate tumor cell line, 48 h
Description: as §1, §2

H1299 = experiment: CellTiter-Blue cell-based survival/proliferation assay, H1299; conditions: Homo sapiens, NCI-H1299; H1299 lung tumor cell line, 48 h
Description: as §1, §2

HCT116 = experiment: CellTiter-Blue cell-based survival/proliferation assay, HCT116; conditions: Homo sapiens, HCT-116; HCT116 colorectal tumor cell line, 48 h
Description: as §1, §2

HEP2 = experiment: CellTiter-Blue cell-based survival/proliferation assay, HEP2; conditions: Homo sapiens, HEp-2; HEP2 head & neck tumor cell line, 48 h
Description: as §1, §2

HEPG2 = experiment: CellTiter-Blue cell-based survival/proliferation assay, HEPG2; conditions: Homo sapiens; HEPG2 liver tumor cell line, 48 h
Description: as §1, §2

HGC27 = experiment: CellTiter-Blue cell-based survival/proliferation assay, HGC27; conditions: Homo sapiens, HGC-27; HGC27 stomach tumor cell line, 48 h
Description: as §1, §2

MDAMB231 = experiment: CellTiter-Blue cell-based survival/proliferation assay, MDAMB231; conditions: Homo sapiens, MDA-MB-231; MDAMB231 breast tumor cell line, 48 h
Description: as §1, §2

MESSA = experiment: CellTiter-Blue cell-based survival/proliferation assay, MESSA; conditions: Homo sapiens, MES-SA; MESSA ovary tumor cell line, 48 h
Description: as §1, §2

PANC1 = experiment: CellTiter-Blue cell-based survival/proliferation assay, PANC1; conditions: Homo sapiens, PANC-1; PANC_1 pancreas tumor cell line, 48 h
Description: as §1, §2

PC3 = experiment: CellTiter-Blue cell-based survival/proliferation assay, PC3; conditions: Homo sapiens, PC-3; PC3 prostate tumor cell line, 48 h
Description: as §1, §2

PLCPRF5 = experiment: CellTiter-Blue cell-based survival/proliferation assay, PLCPRF5; conditions: Homo sapiens, PLC-PRF-5; PLC_PRF5 liver tumor cell line, 48 h
Description: as §1, §2

SW579 = experiment: CellTiter-Blue cell-based survival/proliferation assay, SW579; conditions: Homo sapiens; SW579 head & neck tumor cell line, 48 h
Description: as §1, §2

TOV112D = experiment: CellTiter-Blue cell-based survival/proliferation assay, TOV112D; conditions: Homo sapiens; TOV112D ovary tumor cell line, 48 h
Description: as §1, §2

[1] = system: panel of about 34 human tumor cell lines; experiment: Cell-based proliferation screening on panel of tumor cell lines; conditions: solid tumor cell line, cell line unknown, 48 h, read-out: IC50, solid tumor cell line of column 6 (last section of Table 3)
Description: Compounds of formula (I) were tested against a panel of about 34 human tumor cell lines representing 17 cancer type, namely leukemia (represented by 1 cell line), lymphoma (4 cell lines), myeloma (1 cell line), colorectal (2 cell lines), head and neck (3 cell lines), lung (3 cell lines), melanoma (2 cell lines), pancreas (2 cell lines), prostate (2 cell lines), ovary (2 cell lines) breast (2 cell lines), kidney (2 cell lines), stomach (2 cell lines), liver (2 cell lines), glioblastoma (2 cell lines), osteosarcoma (1 cell line), Ewing Sarcoma (1 cell line).
as §1, §2

Compound | IC50 (HL60) | IC50 (OPM2) | IC50 (A498) | IC50 (A549) | IC50 (ACHN) | IC50 (AGS) | IC50 (BT20) | IC50 (BXPC3) | IC50 (CALU6) | IC50 (CLS354) | IC50 (DLD1) | IC50 (DU145) | IC50 (H1299) | IC50 (HCT116) | IC50 (HEP2) | IC50 (HEPG2) | IC50 (HGC27) | IC50 (MDAMB231) | IC50 (MESSA) | IC50 (PANC1) | also measured
CCOCc1cc(Nc2ncc(-c3ccc(N4CCNC4=O)cc3)o2)cc(OCCO)c1 [Example 059, 1-(4-(2-((3-(ethoxymethyl)-5-(2-hydroxyethoxy)phenyl)amino)oxazol-5-yl)phenyl)imidazolidin-2-one] | ≤ 100 nM | ≤ 100 nM | > 1000 nM | > 1000 nM | > 1000 nM | > 1000 nM | > 1000 nM | 500 to 1000 nM | > 1000 nM | ≤ 100 nM | > 1000 nM | > 1000 nM | > 1000 nM | ≤ 100 nM | ≤ 100 nM | > 1000 nM | > 1000 nM | > 1000 nM | > 1000 nM | > 1000 nM | IC50 (PC3): ≤ 100 nM; IC50 (PLCPRF5): > 1000 nM; IC50 (SW579): ≤ 100 nM; IC50 (TOV112D): ≤ 100 nM; IC50 [1]: ≤ 100 nM
CCOCc1ccc(C)c(Nc2ncc(-c3ccc(-c4ccnn4C)cc3)o2)c1 [Example 061, N-(5-(ethoxymethyl)-2-methylphenyl)-5-(4-(1-methyl-1H-pyrazol-5-yl)phenyl)oxazol-2-amine] | > 1000 nM | > 1000 nM | > 1000 nM | > 1000 nM | > 1000 nM | > 1000 nM | > 1000 nM | > 1000 nM | > 1000 nM | > 1000 nM | > 1000 nM | > 1000 nM | > 1000 nM | > 1000 nM | > 1000 nM | > 1000 nM | > 1000 nM | > 1000 nM | > 1000 nM | > 1000 nM | IC50 (PC3): > 1000 nM; IC50 (PLCPRF5): > 1000 nM; IC50 (SW579): > 1000 nM; IC50 (TOV112D): > 1000 nM; IC50 [1]: > 1000 nM
CCOCc1cc(COCC)cc(Nc2ncc(-c3ccc(N4CCNC4=O)cc3)o2)c1 [Example 053, 1-(4-(2-((3,5-bis(ethoxymethyl)phenyl)amino)oxazol-5-yl)phenyl)imidazolidin-2-one] | ≤ 100 nM | ≤ 100 nM | > 1000 nM | > 1000 nM | > 1000 nM | 100 to 500 nM | > 1000 nM | > 1000 nM | > 1000 nM | ≤ 100 nM | > 1000 nM | > 1000 nM | > 1000 nM | ≤ 100 nM | ≤ 100 nM | > 1000 nM | 100 to 500 nM | > 1000 nM | ≤ 100 nM | > 1000 nM | IC50 (PC3): ≤ 100 nM; IC50 (PLCPRF5): > 1000 nM; IC50 (SW579): > 1000 nM; IC50 (TOV112D): > 1000 nM; IC50 [1]: ≤ 100 nM
CCOCc1ccc(C)c(Nc2ncc(-c3ccc(-c4ccn[nH]4)cc3)o2)c1 [Example 057, 5-(4-(1H-pyrazol-5-yl)phenyl)-N-(5-(ethoxymethyl)-2-methylphenyl)oxazol-2-amine] | 100 to 500 nM | 100 to 500 nM | > 1000 nM | > 1000 nM | > 1000 nM | > 1000 nM | > 1000 nM | > 1000 nM | > 1000 nM | 100 to 500 nM | > 1000 nM | > 1000 nM | > 1000 nM | > 1000 nM | 500 to 1000 nM | > 1000 nM | > 1000 nM | > 1000 nM | > 1000 nM | > 1000 nM | IC50 (PC3): 500 to 1000 nM; IC50 (PLCPRF5): > 1000 nM; IC50 (SW579): > 1000 nM; IC50 (TOV112D): ≤ 100 nM; IC50 [1]: 500 to 1000 nM
